Read-outs that look alike come from different tables or passages of the source.
Columns and labels:
[1] = Critical solubility temperature (CST) in n-hexane
From the text: FIG. 1 is a diagram of the critical solubility temperatures (CST) of perfluorocarbon mixtures in n-hexane using perfluorodecalin as a starting point
FIG. 2 is a diagram of the critical solubility temperatures of perfluorocarbon mixtures in n-hexane using F-octylbromide as a starting point.

[2] = Vapour pressure of fluorocarbons at 37° C.; format: physicochemical
[3] = O2 solubility of fluorocarbons; format: physicochemical
[4] = Penetration into skin and residence time/release of labelled encapsulated fluorocarbons, animal experiments; format: in vivo
From the text: By means of separate investigations, it was possible to determine the dependence of the penetration rates and the depth of penetration on the particle size of the aggregates experimentally in animal experiments using labelled encapsulated fluorocarbons. […] The choice of fluorocarbons or mixtures thereof according to their lipid solubility (represented by their critical solubility temperature CST in n-hexane) permits, as a further important criterion, the control of the residence time in the tissue. […] With the aid of fluorocarbon mixtures, in this way systems having desired CST values, i.e. lipid and membrane solubilities, with respect to the intended use can be prepared in a controlled manner.

[5] = critical solubility temperature in n-hexane

Row | SMILES | CST [1, 5] | CST [1] | further results
1 | FC(F)(F)C(F)(F)C(F)(F)C(F)(F)C=CC(F)(F)C(F)(F)C(F)(F)C(F)(F)F [Bis-F(butyl)ethene, bis-F(butyl)ethene] | 22.5 °C |  | 
2 | FC1(F)OC(F)(F)C(F)(F)N(C(F)(F)C2(F)C(F)(F)C(F)(F)C(F)(F)C(F)(F)C2(F)F)C1(F)F [F-cyclohexylmethylmorpholine] | 38.5 °C |  | Vapour Pressure [2]: 4 mm Hg; O2 solubility [3]: 42 ml of O2 /100 ml of Fc
3 | FC(F)(F)C(F)(F)C(F)(F)C(F)(F)C(F)(F)C(F)(F)OC(F)(F)C(F)(F)C(F)(F)C(F)(F)C(F)(F)C(F)(F)F [F-dihexyl ether] | 59 °C |  | 
4 | FC(F)(F)C(F)(F)C(F)(F)C(F)(F)C(F)(F)C(F)(F)F [F-hexane, perfluorohexane] |  |  | release from the tissue ([4]; in vivo): released correspondingly more rapidly from the tissue
5 | FC(F)(F)C1(F)C(F)(F)C(F)(F)C(F)(F)C(F)(F)C1(F)F [F-methylcyclohexane, perfluoromethylcyclohexane] | 8.2 °C |  | 
6 | FC(F)(F)C(F)(F)C(F)(F)C(F)(F)N(C(F)(F)C(F)(F)C(F)(F)C(F)(F)F)C(F)(F)C(F)(F)C(F)(F)C(F)(F)F [F-tributylamine, perfluorotributylamine] | 59 °C |  | residence time in the tissue ([4]; in words, related to CST / lipid solubility): relatively large residence time
7 | FC(F)(F)C(F)(F)C(F)(F)N(C(F)(F)C(F)(F)C(F)(F)F)C(F)(F)C(F)(F)C(F)(F)F [F-tripropylamine] |  | 43 °C | 
8 | FC(F)(F)C(F)(F)C(F)(F)C(F)(F)C1(F)OC(F)(F)C(F)(F)C1(F)F (centres unmarked) [Perfluorobutyltetrahydrofuran, perfluorobutyltetrahydrofuran] | 29 °C |  | release from the tissue ([4]; in words, compared with perfluorotributylamine): released correspondingly more rapidly from the tissue; Vapour Pressure [2]: 51 mm Hg; O2 solubility [3]: 52 ml of O2 /100 ml of Fc
9 | FC1(F)C(F)(F)C(F)(F)C2(F)C(F)(F)C(F)(F)C(F)(F)C(F)(F)C2(F)C1(F)F (centres unmarked) [Perfluorodecalin, perfluorodecalin] |  | 22 °C | release from the tissue ([4]; in vivo): released correspondingly more rapidly from the tissue
10 | FC(F)(F)C(F)(F)C(F)(F)C(F)(F)C(F)(F)C(F)(F)C(F)(F)C(F)(F)Br [Perfluorooctyl bromide, perfluorooctyl bromide] |  | -24.5 °C | 

Source: patent US5686102A, “Pharmacological composition for topical administration” (Lancaster Group AG, priority 1992, dated 1997)
